Measured values: US11981675B1, “Pyrrolo[3,2-C]quinoline-2,3-dione compounds as CK2 inhibitors” (KING FAISAL UNIVERSITY, priority 2023, dated 2024)
pIC50: −log10 of the molar value.

Columns and labels:
[1] = tested on: MDA-MB-231 (breast); assay: In vitro cytotoxic activity assay (MTT), MDA-MB-231; assay type: cell-based; details: Homo sapiens; MDA-MB-231 (breast) cells, exposed for 96 hours; read-out: Cytotoxicity activity IC50 (50% inhibition of cell proliferation)
Method: (§1) Compounds 1-16 were screened for their in vitro cytotoxic activity utilizing a 3-(4,5-dimethyl-thiazol-2-yl)-2,5-diphenyltetrazolium bromide (MTT) assay against selected cancer human cell lines consisting of PC3 (prostate), HCT116 (colon), A375 (melanoma), H1299 (lung), MIAPaCa-2 (pancreas), HL60 (leukemia), MCF7 (breast), MDA-MB-231 (breast) (T. Mosmann, J. Immunol. Meth., 1983, 65, 55-63). The cells were cultured at 37° C. in RMPI1640 medium supplemented with 10% fetal bovine serum, 50 IU/mL penicillin, and 50 μg/mL streptomycin in a 5% CO2 incubator. All cells were sub-cultured 3 times/week by trypsinisation. Viable cells were seeded and allowed to adhere for 12 h before a test drug was added in 96-well plates at an initial density of 1.0×10^5 cells/mL. Tumor cell lines were separately exposed to various concentrations of the tested compounds followed by incubation at a temperature of 37° C. during 96 hours inside a medium of fresh RMPI 1640. Cells were subsequently incubated at 37° C. using MTT at 0.5 mg/mL during 4 hours. After removal of supernatant, formazan crystals were dissolved in isopropanol and the optical density was measured at 570 nm. CX-4945 was used as a positive control.

[2] = tested on: MIAPaCa-2 (pancreas); assay: In vitro cytotoxic activity assay (MTT), MIAPaCa-2; assay type: cell-based; details: Homo sapiens, MIA PaCa-2; MIAPaCa-2 (pancreas) cells, exposed for 96 hours; read-out: Cytotoxicity activity IC50 (50% inhibition of cell proliferation)
Method: as §1

[3] = tested on: MCF7 (breast); assay: In vitro cytotoxic activity assay (MTT), MCF7; assay type: cell-based; details: Homo sapiens; MCF7 (breast) cells, exposed for 96 hours; read-out: Cytotoxicity activity IC50 (50% inhibition of cell proliferation)
Method: as §1

[4] = biological target: T1, recombinant human CK2 (RRββ-holoenzyme) (Homo sapiens, UniProt P68400); assay: CK2 Kinase Assay (radiometric, [γ-33P] ATP); assay type: biochemical; details: final ATP concentration 15 μM, 10 min at 30° C., eight concentrations; read-out: protein kinase CK2 activity IC50
T1 construct: purchased Millipore
Method: CK2 Kinase Assay was conducted using the protocol as described in Pierre F. et al; J. Med. Chem. 2011, 54, 635-654. The tested compounds in aqueous solution were added at a volume of 10 μL to a reaction mixture comprising 10 μL of assay dilution buffer (ADB; 20 mM MOPS, pH 7.2, 25 mM β-glycerol phosphate, 5 mM EGTA, 1 mM sodium orthovanadate, and 1 mM dithiothreitol), 10 μL of substrate peptide (RRRDDDSDDD, dissolved in ADB at a concentration of 1 mM), 10 μL of recombinant human CK2 (RRββ-holoenzyme, 25 ng dissolved in ADB; Millipore). Reactions were initiated by the addition of 10 μL of ATP solution (90% 75 mM MgCl2, 75 μM ATP (final ATP concentration:15 μM) dissolved in ADB; 10% [γ-33P] ATP (stock 1 mCi/100 μL; 3000 Ci/mmol (Perkin-Elmer) and maintained for 10 min at 30° C. The reactions were quenched with 100 μL of 0.75% phosphoric acid and then transferred to and filtered through a phosphor cellulose filter plate (Millipore). After washing each well five times with 0.75% phosphoric acid, the plate was dried under vacuum for 5 min and, following the addition of 15 μL of scintillation fluid to each well, the residual radioactivity was measured using a Wallac luminescence counter. The IC50 values were derived from eight concentrations of test inhibitors.

[5] = tested on: PC3 (prostate); assay: In vitro cytotoxic activity assay (MTT), PC3; assay type: cell-based; details: Homo sapiens, Prostate cell; PC3 (prostate) cells, exposed for 96 hours; read-out: Cytotoxicity activity IC50 (50% inhibition of cell proliferation)
Method: as §1

[6] = tested on: A375 (melanoma); assay: In vitro cytotoxic activity assay (MTT), A375; assay type: cell-based; details: Homo sapiens, A-375; A375 (melanoma) cells, exposed for 96 hours; read-out: Cytotoxicity activity IC50 (50% inhibition of cell proliferation)
Method: as §1

[7] = tested on: H1299 (lung); assay: In vitro cytotoxic activity assay (MTT), H1299; assay type: cell-based; details: Homo sapiens, NCI-H1299; H1299 (lung) cells, exposed for 96 hours; read-out: Cytotoxicity activity IC50 (50% inhibition of cell proliferation)
Method: as §1

[8] = tested on: HL60 (leukemia); assay: In vitro cytotoxic activity assay (MTT), HL60; assay type: cell-based; details: Homo sapiens, HL-60; HL60 (leukemia) cells, exposed for 96 hours; read-out: Cytotoxicity activity IC50 (50% inhibition of cell proliferation)
Method: as §1

[9] = tested on: HCT116 (colon); assay: In vitro cytotoxic activity assay (MTT), HCT116; assay type: cell-based; details: Homo sapiens, HCT-116; HCT116 (colon) cells, exposed for 96 hours; read-out: Cytotoxicity activity IC50 (50% inhibition of cell proliferation)
Method: as §1

T1 sequence (P68400 whole entry): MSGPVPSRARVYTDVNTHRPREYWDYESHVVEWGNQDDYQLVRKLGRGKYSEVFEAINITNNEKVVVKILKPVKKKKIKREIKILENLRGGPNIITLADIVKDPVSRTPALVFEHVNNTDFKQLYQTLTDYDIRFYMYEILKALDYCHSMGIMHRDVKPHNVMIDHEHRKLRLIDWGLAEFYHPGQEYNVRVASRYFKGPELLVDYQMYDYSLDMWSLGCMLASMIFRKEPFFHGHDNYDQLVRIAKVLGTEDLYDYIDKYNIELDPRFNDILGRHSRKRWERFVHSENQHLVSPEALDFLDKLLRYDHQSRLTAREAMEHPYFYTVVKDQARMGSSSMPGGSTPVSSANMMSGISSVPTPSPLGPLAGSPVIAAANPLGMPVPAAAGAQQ
T1 sequence (P67870 whole entry partner): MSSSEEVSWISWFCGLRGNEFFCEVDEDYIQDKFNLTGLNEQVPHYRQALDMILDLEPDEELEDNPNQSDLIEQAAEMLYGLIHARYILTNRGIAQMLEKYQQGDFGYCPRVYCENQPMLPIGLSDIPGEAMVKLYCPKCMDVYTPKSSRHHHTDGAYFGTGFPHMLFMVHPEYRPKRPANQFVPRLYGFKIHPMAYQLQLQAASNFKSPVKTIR

## O=C1Nc2c(c(Nc3cccc(Cl)c3)nc3cc(C(=O)O)ccc23)C1=O [Compound (1), 4-((3-chlorophenyl)amino)-2,3-dioxo-2,3-dihydro-1H-pyrrolo[3,2-c]quinoline-7-carboxylic acid]
[1]
  pIC50: 5.39
[2]
  pIC50: 6.05
[3]
  pIC50: 5.28
[4]
  pIC50: 7.66
[5]
  pIC50: 5.89
[6]
  pIC50: 5.49
[7]
  pIC50: 5.72
[8]
  pIC50: 5.44
[9]
  pIC50: 5.80
